Source: ChEMBL document CHEMBL1201862, “PubChem BioAssay data set” (2004)
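Cultured in 96-well plates, cells were exposed to test compound for 48 hours across five concentrations. GI50 marks 50% less growth.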 The source made the active and inactive calls. Cut-off read from the data, not from the text of the source: active = GI50 up to about 1.1 µM and inactive = higher.

Legend:
Assay in all cases: NCI-60 cell line screen, 48 h
786-0 = test system: 786-0
A549 = test system: A549
ACHN = test system: ACHN
CAKI-1 = test system: CAKI-1
CCRF-CEM = test system: CCRF-CEM
DLD-1 = test system: DLD-1
DMS-114 = test system: DMS-114
DMS-273 = test system: DMS-273
EKVX = test system: EKVX
HCC 2998 = test system: HCC 2998
HCT-116 = test system: HCT-116
HCT-15 = test system: HCT-15
HOP-18 = test system: HOP-18
HOP-62 = test system: HOP-62
HOP-92 = test system: HOP-92
HT-29 = test system: HT-29
IGROV-1 = test system: IGROV-1
K562 = test system: K562
KM-20L2 = test system: KM-20L2
KM12 = test system: KM12
LXFL 529 = test system: LXFL 529
M14 = test system: M14
M19-MEL = test system: M19-MEL
MOLT-4 = test system: MOLT-4
Malme-3M = test system: Malme-3M
NCI-H226 = test system: NCI-H226
NCI-H23 = test system: NCI-H23
NCI-H460 = test system: NCI-H460
NCI-H522 = test system: NCI-H522
OVCAR-3 = test system: OVCAR-3
OVCAR-4 = test system: OVCAR-4
OVCAR-8 = test system: OVCAR-8
RPMI-8226 = test system: RPMI-8226
RXF 393 = test system: RXF 393
RXF 631 = test system: RXF 631
SF-268 = test system: SF-268
SF-539 = test system: SF-539
SK-MEL-28 = test system: SK-MEL-28
SK-MEL-2 = test system: SK-MEL-2
SK-MEL-5 = test system: SK-MEL-5
SK-OV-3 = test system: SK-OV-3
SN12C = test system: SN12C
SNB-19 = test system: SNB-19
SNB-75 = test system: SNB-75
SNB-78 = test system: SNB-78
SR = test system: SR
SW-620 = test system: SW-620
TK-10 = test system: TK-10
U-251 = test system: U-251
UACC-257 = test system: UACC-257
UACC-62 = test system: UACC-62
UO-31 = test system: UO-31
A498 = test system: A498
COLO 205 = test system: COLO 205
HL-60 = test system: HL-60
LOX IMVI = test system: LOX IMVI
OVCAR-5 = test system: OVCAR-5
SF-295 = test system: SF-295

O=C1N2Cc3c4ccc5c3CN3C(=O)N6Cc7c(ccc(c7CN1C6(c1ccccc1)C23c1ccccc1)OCCOCCOc1cc(Br)c(Br)cc1OCCOCCO4)OCCOCCOc1cc(Br)c(Br)cc1OCCOCCO5 (stereo not drawn)
GI50 (786-0): > 100 µM (inactive)
GI50 (A549): > 100 µM (inactive)
GI50 (ACHN): 47.8 µM (inactive)
GI50 (CAKI-1): > 100 µM (inactive)
GI50 (CCRF-CEM): > 100 µM (inactive)
GI50 (DLD-1): 20.2 µM (inactive)
GI50 (DMS-114): 41.2 µM (inactive)
GI50 (DMS-273): > 100 µM (inactive)
GI50 (EKVX): > 100 µM (inactive)
GI50 (HCC 2998): > 100 µM (inactive)
GI50 (HCT-116): > 100 µM (inactive)
GI50 (HCT-15): 25.4 µM
GI50 (HOP-18): > 100 µM (inactive)
GI50 (HOP-62): 40.8 µM (inactive)
GI50 (HOP-92): 39.2 µM (inactive)
GI50 (HT-29): > 100 µM (inactive)
GI50 (IGROV-1): 44 µM (inactive)
GI50 (K562): > 100 µM (inactive)
GI50 (KM-20L2): > 100 µM (inactive)
GI50 (KM12): > 100 µM (inactive)
GI50 (LXFL 529): 67.3 µM (inactive)
GI50 (M14): 21.9 µM (inactive)
GI50 (M19-MEL): > 100 µM (inactive)
GI50 (MOLT-4): > 100 µM (inactive)
GI50 (Malme-3M): 75.5 µM (inactive)
GI50 (NCI-H226): > 100 µM (inactive)
GI50 (NCI-H23): > 100 µM (inactive)
GI50 (NCI-H460): > 100 µM (inactive)
GI50 (NCI-H522): > 100 µM (inactive)
GI50 (OVCAR-3): > 100 µM (inactive)
GI50 (OVCAR-4): 36.5 µM (inactive)
GI50 (OVCAR-8): > 100 µM (inactive)
GI50 (RPMI-8226): > 100 µM (inactive)
GI50 (RXF 393): > 100 µM (inactive)
GI50 (RXF 631): > 100 µM (inactive)
GI50 (SF-268): > 100 µM (inactive)
GI50 (SF-539): 20.1 µM (inactive)
GI50 (SK-MEL-28): > 100 µM (inactive)
GI50 (SK-MEL-2): 91 µM (inactive)
GI50 (SK-MEL-5): 44.3 µM (inactive)
GI50 (SK-OV-3): > 100 µM (inactive)
GI50 (SN12C): 39.3 µM (inactive)
GI50 (SNB-19): > 100 µM (inactive)
GI50 (SNB-75): 38.2 µM (inactive)
GI50 (SNB-78): > 100 µM (inactive)
GI50 (SR): > 100 µM (inactive)
GI50 (SW-620): 15.1 µM (inactive)
GI50 (TK-10): 65.9 µM (inactive)
GI50 (U-251): > 100 µM (inactive)
GI50 (UACC-257): > 100 µM (inactive)
GI50 (UACC-62): > 100 µM (inactive)
GI50 (UO-31): > 100 µM (inactive)

CC1=C(C(=O)Nc2cc(F)c(F)cc2F)C(c2ccc(N(C)C)cc2)C(C(=O)Nc2cc(F)c(F)cc2F)=C(C)N1
GI50 (786-0): 27.1 µM (inactive)
GI50 (A498): 19.1 µM (inactive)
GI50 (A549): 16.4 µM (inactive)
GI50 (ACHN): 19.4 µM (inactive)
GI50 (CAKI-1): 13.8 µM (inactive)
GI50 (CCRF-CEM): 18.5 µM (inactive)
GI50 (COLO 205): 43.2 µM (inactive)
GI50 (DLD-1): 34.9 µM (inactive)
GI50 (DMS-114): 17.2 µM (inactive)
GI50 (DMS-273): 26.9 µM (inactive)
GI50 (EKVX): 16 µM (inactive)
GI50 (HCC 2998): 23.7 µM (inactive)
GI50 (HL-60): 13.9 µM (inactive)
GI50 (HOP-62): 21.1 µM (inactive)
GI50 (HOP-92): 0.53 µM (active)
GI50 (HT-29): 30.3 µM (inactive)
GI50 (IGROV-1): 35.5 µM (inactive)
GI50 (K562): 23.6 µM (inactive)
GI50 (KM-20L2): 34 µM (inactive)
GI50 (KM12): 19.9 µM (inactive)
GI50 (LOX IMVI): 31.8 µM (inactive)
GI50 (LXFL 529): 19.3 µM (inactive)
GI50 (M14): 31.3 µM (inactive)
GI50 (M19-MEL): 38 µM (inactive)
GI50 (MOLT-4): 15.4 µM (inactive)
GI50 (Malme-3M): 32.7 µM (inactive)
GI50 (NCI-H226): 20.6 µM (inactive)
GI50 (NCI-H23): 20.9 µM (inactive)
GI50 (NCI-H460): 30.3 µM (inactive)
GI50 (NCI-H522): 19.8 µM (inactive)
GI50 (OVCAR-3): 0.432 µM (active)
GI50 (OVCAR-4): 17.7 µM (inactive)
GI50 (OVCAR-5): 32.5 µM (inactive)
GI50 (OVCAR-8): 29.6 µM (inactive)
GI50 (RPMI-8226): 17.2 µM (inactive)
GI50 (RXF 393): 17.1 µM (inactive)
GI50 (RXF 631): 23 µM (inactive)
GI50 (SF-268): 27 µM (inactive)
GI50 (SF-295): 24.3 µM (inactive)
GI50 (SF-539): 18.2 µM (inactive)
GI50 (SK-MEL-28): 30.5 µM (inactive)
GI50 (SK-MEL-2): 28.8 µM (inactive)
GI50 (SK-MEL-5): 17.8 µM (inactive)
GI50 (SK-OV-3): 30.1 µM (inactive)
GI50 (SN12C): 30.1 µM (inactive)
GI50 (SNB-19): 38.7 µM (inactive)
GI50 (SNB-75): 21.5 µM (inactive)
GI50 (SNB-78): 17.7 µM (inactive)
GI50 (SW-620): 28.8 µM (inactive)
GI50 (TK-10): 32.7 µM (inactive)
GI50 (U-251): 28.9 µM (inactive)
GI50 (UACC-257): 25.5 µM (inactive)
GI50 (UO-31): 17.1 µM (inactive)

CC/C(CC(=O)CCC(=O)Nc1c(C)cccc1C)=N\NC(=O)NN
GI50 (786-0): > 100 µM (inactive)
GI50 (A498): > 100 µM (inactive)
GI50 (A549): > 100 µM (inactive)
GI50 (ACHN): > 100 µM (inactive)
GI50 (CCRF-CEM): > 100 µM (inactive)
GI50 (COLO 205): > 100 µM (inactive)
GI50 (DLD-1): > 100 µM (inactive)
GI50 (EKVX): > 100 µM (inactive)
GI50 (HCC 2998): > 100 µM (inactive)
GI50 (HCT-116): > 100 µM (inactive)
GI50 (HCT-15): > 100 µM
GI50 (HL-60): > 100 µM (inactive)
GI50 (HOP-18): > 100 µM (inactive)
GI50 (HOP-92): > 100 µM (inactive)
GI50 (HT-29): > 100 µM (inactive)
GI50 (IGROV-1): > 100 µM (inactive)
GI50 (K562): > 100 µM (inactive)
GI50 (KM-20L2): > 100 µM (inactive)
GI50 (KM12): > 100 µM (inactive)
GI50 (LXFL 529): > 100 µM (inactive)
GI50 (M14): > 100 µM (inactive)
GI50 (M19-MEL): > 100 µM (inactive)
GI50 (MOLT-4): > 100 µM (inactive)
GI50 (Malme-3M): > 100 µM (inactive)
GI50 (NCI-H23): > 100 µM (inactive)
GI50 (NCI-H460): > 100 µM (inactive)
GI50 (OVCAR-3): > 100 µM (inactive)
GI50 (OVCAR-4): > 100 µM (inactive)
GI50 (OVCAR-5): > 100 µM (inactive)
GI50 (OVCAR-8): > 100 µM (inactive)
GI50 (RXF 393): > 100 µM (inactive)
GI50 (RXF 631): > 100 µM (inactive)
GI50 (SF-268): > 100 µM (inactive)
GI50 (SF-295): > 100 µM (inactive)
GI50 (SF-539): > 100 µM (inactive)
GI50 (SK-MEL-28): > 10 µM (inactive)
GI50 (SK-MEL-2): > 100 µM (inactive)
GI50 (SK-MEL-5): > 100 µM (inactive)
GI50 (SN12C): > 100 µM (inactive)
GI50 (SNB-19): > 100 µM (inactive)
GI50 (SNB-78): > 100 µM (inactive)
GI50 (SR): > 100 µM (inactive)
GI50 (SW-620): > 100 µM (inactive)
GI50 (TK-10): > 100 µM (inactive)
GI50 (U-251): > 100 µM (inactive)
GI50 (UACC-257): > 100 µM (inactive)
GI50 (UACC-62): > 100 µM (inactive)
GI50 (UO-31): > 100 µM (inactive)
